From US7595401B2, “Therapeutic compounds and their use in cancer” (Myriad Pharmaceuticals, Inc., priority 2006, dated 2009)

Test system: purified human Hsp90
Assay: Binding Assay: fluorescence polarization with BODIPY-labeled geldanamycin
Conditions: BODIPY-GM 10 nM, Hsp90 30 nM
Summary of the method: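 Fluorescence polarization competition with BODIPY-geldanamycin (10 nM final) and human Hsp90 (30 nM final) in HEPES-KOH pH 7.3 buffer with molybdate, NP-40, DTT; 2% DMSO, overnight at room temperature. Read 485/530 nm; percent inhibition from mP normalized to DMSO controls, fluorescent-compound points excluded.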

Structure (SMILES)	% Inhibition at 5 μM Compound Concentration [%]	IC50 [nM]
Nc1ncnc2c1nc(Sc1cc3c(cc1Br)OCO3)n2CCc1cccc(C(F)(F)F)c1 [Example 165, 8-(6-Bromo-benzo[1,3]dioxol-5-ylsulfanyl)-9-[2-(3-trifluoromethyl-phenyl)-ethyl]-9H-purin-6-ylamine]	60	300
Nc1ncn(CCc2cccc(C(F)(F)F)c2)c2nc(Sc3cc4c(cc3Br)OCO4)nc1-2 [Example 166, 8-(6-Bromo-benzo[1,3]dioxol-5-ylsulfanyl)-3-[2-(3-trifluoromethyl-phenyl)-ethyl]-3H-purin-6-ylamine]	0	–
COc1ccc(OC)c(Sc2nc3c(N)ncnc3n2CCc2ccc3c(c2)OCO3)c1 [Example 167, 9-(2-Benzo[1,3]dioxol-5-yl-ethyl)-8-(2,5-dimethoxy-phenylsulfanyl)-9H-purin-6-ylamine]	44	> 25000
COc1ccc(OC)c(Sc2nc3c(N)ncn(CCc4ccc5c(c4)OCO5)c-3n2)c1 [Example 168, 3-(2-benzo[1,3]dioxol-5-yl-ethyl)-8-(2,5-dimethoxy-phenylsulfanyl)-3H-purin-6-ylamine]	0	–
COc1ccc(OC)c(Sc2nc3c(N)ncnc3n2CCC2CCCCC2)c1 [Example 169, 9-(2-Cyclohexyl-ethyl)-8-(2,5-dimethoxyphenyl-sulfanyl)-9H-purin-6-ylamine]	37	470
COc1ccc(OC)c(Sc2nc3c(N)ncn(CCC4CCCCC4)c-3n2)c1 [Example 170, 3-(2-cyclohexyl-ethyl)-8-(2,5-dimethoxy-phenylsulfanyl)-3H-purin-6-ylamine]	3	–
Nc1ncnc2c1nc(Sc1cc3c(cc1Br)OCO3)n2CCc1ccc(-c2ccccc2)cc1 [Example 171, 9-(2-Biphenyl-4-yl-ethyl)-8-(6-bromo-benzo[1,3]dioxol-5-ylsulfanyl)-9H-purin-6-ylamine]	–	> 25000
Nc1ncn(CCc2ccc(-c3ccccc3)cc2)c2nc(Sc3cc4c(cc3Br)OCO4)nc1-2 [Example 172, 3-(2-biphenyl-4-yl-ethyl)-8-(6-bromo-benzo[1,3]dioxol-5-ylsulfanyl)-3H-purin-6-ylamine]	>10	–
Nc1ncnc2c1nc(Sc1cc3c(cc1Br)OCO3)n2CCC1CCCCC1 [Example 173, 8-(6-Bromo-benzo[1,3]dioxol-5-ylsulfanyl)-9-(2-cyclohexyl-ethyl)-9H-purin-6-ylamine]	44	> 25000
Nc1ncn(CCC2CCCCC2)c2nc(Sc3cc4c(cc3Br)OCO4)nc1-2 [Example 174, 8-(6-bromo-benzo[1,3]dioxol-5-ylsulfanyl)-3-(2-cyclohexyl-ethyl)-3H-purin-6-ylamine]	37	> 25000
COc1ccc(OC)c(Sc2nc3c(N)ncnc3n2CCc2ccc(S(=O)(=O)O)cc2)c1 [Example 175, 4-{2-[6-Amino-8-(2,5-dimethoxy-phenylsulfanyl)-purin-9-yl]-ethyl}-benzenesulfonic acid]	46	14000
COc1ccc(OC)c(Sc2nc3c(N)ncn(CCc4ccc(S(=O)(=O)O)cc4)c-3n2)c1 [Example 176, 4-{2-[6-amino-8-(2,5-dimethoxy-phenylsulfanyl)-purin-3-yl]-ethyl}-benzenesulfonic acid]	6	–
Nc1ncnc2c1nc(Sc1cc3c(cc1Br)OCO3)n2CC(O)c1ccc(Cl)cc1Cl (stereo not shown) [Example 177, 2-[6-Amino-8-(6-bromo-benzo[1,3]dioxol-5-ylsulfanyl)-purin-9-yl]-1-(2,4-dichloro-phenyl)-ethanol]	0	–
Nc1ncn(CC(O)c2ccc(Cl)cc2Cl)c2nc(Sc3cc4c(cc3Br)OCO4)nc1-2 (stereo not shown) [Example 178, 2-[6-amino-8-(6-bromo-benzo[1,3]dioxol-5-ylsulfanyl)-purin-3-yl]-1-(2,4-dichloro-phenyl)-ethanol]	9	–
COc1ccc(OC)c(Sc2nc3c(N)ncnc3n2CC(c2ccccc2)C2CCCCC2)c1 (stereo not shown) [Example 179, 9-(2-Cyclohexyl-2-phenyl-ethyl)-8-(2,5-dimethoxy-phenylsulfanyl)-9H-purin-6-ylamine]	8	–
COc1ccc(OC)c(Sc2nc3c(N)ncn(CC(c4ccccc4)C4CCCCC4)c-3n2)c1 (stereo not shown) [Example 180, 3-(2-cyclohexyl-2-phenyl-ethyl)-8-(2,5-dimethoxy-phenylsulfanyl)-3H-purin-6-ylamine]	>10	–
COc1ccc(OC)c(Sc2nc3c(N)ncnc3n2CCc2ccc(-c3ccccc3)cc2)c1 [Example 181, 9-(2-Biphenyl-4-yl-ethyl)-8-(2,5-dimethoxy-phenylsulfanyl)-9H-purin-6-ylamine]	–	> 25000
COc1ccc(OC)c(Sc2nc3c(N)ncn(CCc4ccc(-c5ccccc5)cc4)c-3n2)c1 [Example 182, 3-(2-biphenyl-4-yl-ethyl)-8-(2,5-dimethoxy-phenylsulfanyl)-3H-purin-6-ylamine]	>10	–
COc1ccc(OC)c(Sc2nc3c(N)ncnc3n2CCc2ccccc2C(F)(F)F)c1 [Example 183, 8-(2,5-Dimethoxy-phenylsulfanyl)-9-[2-(2-trifluoromethyl-phenyl)-ethyl]-9H-purin-6-ylamine]	100	1100

Structure (SMILES)	% Inhibition at 5 μM Compound Concentration [%]	IC50 [nM]
COc1ccc(OC)c(Sc2nc3c(N)ncn(CCc4ccccc4C(F)(F)F)c-3n2)c1 [Example 184, 8-(2,5-dimethoxy-phenylsulfanyl)-3-[2-(2-trifluoromethyl-phenyl)-ethyl]-3H-purin-6-ylamine]	0	–
COc1ccc(OC)c(Sc2nc3c(N)ncnc3n2CCc2ccc(N(C)C)cc2)c1 [Example 185, 8-(2,5-Dimethoxy-phenylsulfanyl)-9-[2-(4-dimethylamino-phenyl)-ethyl]-9H-purin-6-ylamine]	–	> 2500
COc1ccc(OC)c(Sc2nc3c(N)ncn(CCc4ccc(N(C)C)cc4)c-3n2)c1 [Example 186, 8-(2,5-dimethoxy-phenylsulfanyl)-3-[2-(4-dimethylamino-phenyl)-ethyl]-3H-purin-6-ylamine]	0	–
CN(C)c1ccc(CCn2c(Sc3cc4c(cc3Br)OCO4)nc3c(N)ncnc32)cc1 [Example 187, 8-(6-Bromo-benzo[1,3]dioxol-5-ylsulfanyl)-9-[2-(4-dimethylamino-phenyl)-ethyl]-9H-purin-6-ylamine]	–	> 2500
CN(C)c1ccc(CCn2cnc(N)c3nc(Sc4cc5c(cc4Br)OCO5)nc2-3)cc1 [Example 188, 8-(6-bromo-benzo[1,3]dioxol-5-ylsulfanyl)-3-[2-(4-dimethylamino-phenyl)-ethyl]-3H-purin-6-ylamine]	21	–
CCOc1ccc(OCC)c(Sc2nc3c(N)ncnc3n2CCc2ccccc2)c1 [Example 189, 8-(2,5-Diethoxy-phenylsulfanyl)-9-phenethyl-9H-purin-6-ylamine]	–	> 8000
CCOc1ccc(OCC)c(Sc2nc3c(N)ncn(CCc4ccccc4)c-3n2)c1 [Example 190, 8-(2,5-diethoxy-phenylsulfanyl)-3-phenethyl-3H-purin-6-ylamine]	8	–
CCOc1ccc(OCC)c(Sc2nc3c(N)ncnc3n2CCc2ccccc2Cl)c1 [Example 191, 9-[2-(2-Chloro-phenyl)-ethyl]-8-(2,5-diethoxy-phenylsulfanyl)-9H-purin-6-ylamine]	–	> 8000
CCOc1ccc(OCC)c(Sc2nc3c(N)ncn(CCc4ccccc4Cl)c-3n2)c1 [Example 192, 3-[2-(2-chloro-phenyl)-ethyl]-8-(2,5-diethoxy-phenylsulfanyl)-3H-purin-6-ylamine]	0	–
COc1cc(CCn2c(Sc3cc(OC)ccc3OC)nc3c(N)ncnc32)cc(OC)c1 [Example 193, 9-[2-(3,5-dimethoxy-phenyl)-ethyl]-8-(2,5-dimethoxy-phenylsulfanyl)-9H-purin-6-ylamine]	39	310
COc1cc(CCn2cnc(N)c3nc(Sc4cc(OC)ccc4OC)nc2-3)cc(OC)c1 [Example 194, 3-[2-(3,5-dimethoxy-phenyl)-ethyl]-8-(2,5-dimethoxy-phenylsulfanyl)-3H-purin-6-ylamine]	0	–
COc1cc(CCn2c(Sc3cc4c(cc3Br)OCO4)nc3c(N)ncnc32)cc(OC)c1 [Example 195, 8-(6-Bromo-benzo[1,3]dioxol-5-ylsulfanyl)-9-[2-(3,5-dimethoxy-phenyl)-ethyl]-9H-purin-6-ylamine]	80	79
COc1cc(CCn2cnc(N)c3nc(Sc4cc5c(cc4Br)OCO5)nc2-3)cc(OC)c1 [Example 196, 8-(6-Bromo-benzo[1,3]dioxol-5-ylsulfanyl)-3-[2-(3,5-dimethoxy-phenyl)-ethyl]-3H-purin-6-ylamine]	10	–
COc1ccc(OC)c(Sc2nc3c(N)ncnc3n2CCc2ccsc2)c1 [Example 197, 8-(2,5-Dimethoxy-phenylsulfanyl)-9-(2-thiophen-3-yl-ethyl)-9H-purin-6-ylamine]	–	170
COc1ccc(OC)c(Sc2nc3c(N)ncn(CCc4ccsc4)c-3n2)c1 [Example 198, 8-(2,5-dimethoxy-phenylsulfanyl)-3-(2-thiophen-3-yl-ethyl)-3H-purin-6-ylamine]	18	–
COc1ccc(OC)c(Sc2nc3c(N)ncnc3n2CCc2cccs2)c1 [Example 199]	–	110
COc1ccc(OC)c(Sc2nc3c(N)ncn(CCc4cccs4)c-3n2)c1 [Example 200, 8-(2,5-dimethoxy-phenylsulfanyl)-3-(2-thiophen-2-yl-ethyl)-3H-purin-6-ylamine]	18	–
Nc1ncnc2c1nc(Sc1cc3c(cc1Br)OCO3)n2CCc1ccsc1 [Example 201, 8-(6-Bromo-benzo[1,3]dioxol-5-ylsulfanyl)-9-(2-thiophen-3-yl-ethyl)-9H-purin-6-ylamine]	–	72
